The values that follow come from patent US11505548B2, “Heterocyclic compounds and their use for treatment of helminthic infections and diseases” (Celgene Corporation, priority 2019, dated 2022).

Each structure is given as a SMILES string. Bounds are passed on as bounds.

Broadly, the IC50 is the concentration that gives 50% inhibition.

This test concerns Onchocerca gutturosa Adult Male Worms. The experiment in a line: Onchocerciasis in vitro screening model, worm motility score. The conditions noted are these: Onchocerca gutturosa; Table 1 O. gutturosa; levels A/B/C; motility or MTT readout not specified; read-out: O. gutturosa activity level (IC50 or MED). The class given is cell-based.
`Cc1cccnc1Nc1nc(-c2ccc(OC3CCN(C4CC4)CC3(F)F)cn2)ns1` (centres unmarked) [Compound 83, 3-(5-(1-cyclo-propyl-3,3-difluoro-piperidin-4-yloxy)pyridin-2-yl)-N-(3-methylpyridin-2-yl)-1,2,4-thiadiazol-5-amine]: the IC50 was 200 to 500 nM.
For `FC(F)(F)c1cccnc1Nc1nc(-c2cc(C3CC3)ccn2)ns1` [Compound 84, 3-(4-cyclopropyl-pyridin-2-yl)-N-(3-(trifluoromethyl)pyridin-2-yl)-1,2,4-thiadiazol-5-amine], the half-maximal inhibitory concentration (IC50) is less than 200 nM.
The same measure for `FC(F)(F)c1ccnc(Nc2nc(-c3cc(C4CC4)ccn3)ns2)c1` [Compound 85, 3-(4-cyclopropyl-pyridin-2-yl)-N-(4-(trifluoromethyl)pyridin-2-yl)-1,2,4-thiadiazol-5-amine]: less than 200 nM; for `CC(C)c1ccnc(-c2nsc(Nc3cc(C(F)(F)F)ccn3)n2)c1` [Compound 86, 3-(4-isopropyl-pyridin-2-yl)-N-(4-(trifluoromethyl)pyridin-2-yl)-1,2,4-thiadiazol-5-amine]: less than 200 nM.
Under `CC(C)c1cccnc1Nc1nc(-c2ccc(OC3CCN(C4CC4)CC3(F)F)cn2)ns1` (centres unmarked) [Compound 87, 3-(5-(1-cyclo-propyl-3,3-difluoro-piperidin-4-yloxy)pyridin-2-yl)-N-(3-isopropylpyridin-2-yl)-1,2,4-thiadiazol-5-amine] stands less than 200 nM; under `Cc1cccnc1Nc1nc(-c2ccc(OC3CC4(C3)CN(C)C4)cn2)ns1` [Compound 88, 3-(5-(2-methyl-2-azaspiro[3.3]heptan-6-yloxy)pyridin-2-yl)-N-(3-methylpyridin-2-yl)-1,2,4-thiadiazol-5-amine], 500 to 5000 nM.
Under `CC(C)c1cccnc1Nc1nc(-c2ccc(O[C@@H]3CCN(C4CC4)C[C@@H]3F)cn2)ns1` [Compound 89, 3-(5-((3S,4R)-1-cyclopropyl-3-fluoro-piperidin-4-yloxy)pyridin-2-yl)-N-(3-isopropylpyridin-2-yl)-1,2,4-thiadiazol-5-amine] stands less than 200 nM; under `CC(C)c1cccnc1Nc1nc(-c2ccc(O[C@@H]3CCN(C4CC4)C[C@H]3F)cn2)ns1` [Compound 90, 3-(5-((3R,4R)-1-cyclopropyl-3-fluoro-piperidin-4-yloxy)pyridin-2-yl)-N-(3-isopropylpyridin-2-yl)-1,2,4-thiadiazol-5-amine], less than 200 nM.
With `Cc1cccnc1Nc1nc(-c2ccc(O[C@@H]3CCN(C4CC4)C[C@H]3F)cn2)ns1` [Compound 91, 3-(5-((3R,4R)-1-cyclopropyl-3-fluoro-piperidin-4-yloxy)pyridin-2-yl)-N-(3-methylpyridin-2-yl)-1,2,4-thiadiazol-5-amine], the IC50 was less than 200 nM.
Under `Cc1cccnc1Nc1nc(-c2ccc(OC3CCN(C4CC4)C[C@@H]3F)cn2)ns1` (stereo partly drawn) [Compound 92, 3-(5-((3S)-1-cyclopropyl-3-fluoro-piperidin-4-yloxy)pyridin-2-yl)-N-(3-methylpyridin-2-yl)-1,2,4-thiadiazol-5-amine] stands less than 200 nM.
On to `Cc1cccnc1Nc1nc(-c2ncc(OC3CC3)cc2C(F)(F)F)ns1` [Compound 93, 3-(5-cyclo-propoxy-3-(trifluoromethyl)pyridin-2-yl)-N-(3-methyl-pyridin-2-yl)-1,2,4-thiadiazol-5-amine], for which the IC50 was in the range of 500 to 5000 nM.
Under `CC(C)Oc1cccnc1-c1nsc(Nc2cc(N3CCCC3)ccn2)n1` [Compound 94, 3-(3-isopropoxy-pyridin-2-yl)-N-(4-(pyrrolidin-1-yl)pyridin-2-yl)-1,2,4-thiadiazol-5-amine] stands less than 200 nM; under `CC(C)c1cnc(Nc2nc(-c3ccc(OC4CC4)cn3)ns2)cc1C(F)(F)F` [Compound 95, 3-(5-cyclopropoxy-pyridin-2-yl)-N-(5-isopropyl-4-(trifluoromethyl)pyridin-2-yl)-1,2,4-thiadiazol-5-amine], less than 200 nM.
Under `CC(C)c1cnc(Nc2nc(-c3cc(OC4CC4)ccn3)ns2)cc1C(F)(F)F` [Compound 96, 3-(4-cycloprop-oxypyridin-2-yl)-N-(5-isopropyl-4-(trifluoromethyl)pyridin-2-yl)-1,2,4-thiadiazol-5-amine] stands less than 200 nM.
Under `CC(C)c1cnc(Nc2nc(-c3ncccc3OC3CC3)ns2)cc1C(F)(F)F` [Compound 97, 3-(3-cycloprop-oxypyridin-2-yl)-N-(5-isopropyl-4-(trifluoromethyl)pyridin-2-yl)-1,2,4-thiadiazol-5-amine] stands less than 200 nM; under `Cc1cccnc1N(C)c1nc(-c2ccc(OC(C)C)cn2)ns1` [Compound 98, 3-(5-isopropoxy-pyridin-2-yl)-N-methyl-N-(3-methylpyridin-2-yl)-1,2,4-thiadiazol-5-amine], 200 to 500 nM.
On to `FC(F)(F)c1ccnc(-c2nsc(Nc3cc(N4CCCC4)ccn3)n2)c1` [Compound 99, N-(4-(pyrrolidin-1-yl)pyridin-2-yl)-3-(4-(trifluoromethyl)pyridin-2-yl)-1,2,4-thiadiazol-5-amine], for which the half-maximal inhibitory concentration (IC50) was 500 to 5000 nM.
The same measure for `Cc1cccnc1Nc1nc(-c2ccc(S(=O)(=O)C3CCN(C)CC3)cn2)ns1` [Compound 100, 3-(5-(1-methylpiperidin-4-ylsulfonyl)pyridin-2-yl)-N-(3-methylpyridin-2-yl)-1,2,4-thiadiazol-5-amine]: 200 to 500 nM; for `CN(C)c1cccnc1Nc1nc(-c2ccc(OCC(F)(F)F)cn2)ns1` [Compound 101, N3,N3-dimethyl-N2-(3-(5-(2,2,2-trifluoroethoxy)pyridin-2-yl)-1,2,4-thiadiazol-5-yl)pyridine-2,3-diamine]: 200 to 500 nM.
Under `Cc1cccnc1Nc1nc(-c2cc(C(F)(F)F)c(OC3CC3)cn2)ns1` [Compound 102, 3-(5-cyclo-propoxy-4-(trifluoromethyl)pyridin-2-yl)-N-(3-methyl-pyridin-2-yl)-1,2,4-thiadiazol-5-amine] stands 500 to 5000 nM.
Take `Cc1cccnc1Nc1nc(-c2ccc(OC3CC3)cn2)n(C)n1` [Compound 103, N-(5-(5-cyclopropoxy-pyridin-2-yl)-1-methyl-1H-1,2,4-triazol-3-yl)-3-methyl-pyridin-2-amine]: the IC50 was less than 200 nM.
With `Cc1cccnc1Nc1nnc(-c2cc(C(C)C)ccn2)o1` [Compound 104, 5-(4-isopropyl-pyridin-2-yl)-N-(3-methyl-pyridin-2-yl)-1,3,4-oxadiazol-2-amine], the IC50 was less than 200 nM.
The same measure for `COc1cccnc1Nc1nc(-c2ccc(OCC(F)(F)F)cn2)ns1` [Compound 105, N-(3-methoxy-pyridin-2-yl)-3-(5-(2,2,2-trifluoroethoxy)pyridin-2-yl)-1,2,4-thiadiazol-5-amine]: less than 200 nM; for `O=C(NCC1CC1)c1ccc(Nc2nc(-c3ccc(OC4CC4)cn3)ns2)nc1` [Compound 106, 6-(3-(5-cyclo-propoxypyridin-2-yl)-1,2,4-thiadiazol-5-ylamino)-N-(cyclopropyl-methyl) nicotinamide]: 500 to 5000 nM.
The same measure for `O=C(NC1CC(F)(F)C1)c1ccc(Nc2nc(-c3ccc(OC4CC4)cn3)ns2)nc1` [Compound 107, 6-(3-(5-cyclo-propoxypyridin-2-yl)-1,2,4-thiadiazol-5-ylamino)-N-(3,3-difluoro-cyclobutyl) nicotinamide]: 500 to 5000 nM; for `CNc1cccnc1Nc1nc(-c2ccc(OC(C)C)cn2)ns1` [Compound 108, N2-(3-(5-isopropoxypyridin-2-yl)-1,2,4-thiadiazol-5-yl)-N3-methyl-pyridine-2,3-diamine]: 200 to 500 nM; for `CC(C)c1cccnc1Nc1nc(-c2cc(C(F)(F)F)c(OC3CC3)cn2)ns1` [Compound 109, 3-(5-cyclopropoxy-4-(trifluoromethyl)pyridin-2-yl)-N-(3-isopropyl-pyridin-2-yl)-1,2,4-thiadiazol-5-amine]: less than 200 nM.
Under `Cc1cccnc1Nc1nc(-c2cc(C(F)(F)F)c(OCC3CC3)cn2)ns1` [Compound 110, 3-(5-(cyclo-propylmethoxy)-4-(trifluoromethyl)pyridin-2-yl)-N-(3-methyl-pyridin-2-yl)-1,2,4-thiadiazol-5-amine] stands less than 200 nM.
For `CN(C)c1cccnc1Nc1nc(-c2cc(C(F)(F)F)c(OC3CC3)cn2)ns1` [Compound 111, N2-(3-(5-cyclo-propoxy-4-(trifluoromethyl)pyridin-2-yl)-1,2,4-thiadiazol-5-yl)-N3,N3-dimethyl-pyridine-2,3-diamine], the IC50 is less than 200 nM.
With `CC(=O)N1CCN(c2ccc(Nc3nc(-c4ccc(OC5CC5)cn4)ns3)nc2)CC1` [Compound 112, 1-(4-(6-(3-(5-cyclopropoxy-pyridin-2-yl)-1,2,4-thiadiazol-5-ylamino)pyridin-3-yl)piperazin-1-yl) ethanone], the IC50 fell in the range of 200 to 500 nM.
The same measure for `O=C(CC(F)(F)F)N1CCN(c2ccc(Nc3nc(-c4ccc(OC5CC5)cn4)ns3)nc2)CC1` [Compound 113, 1-(4-(6-(3-(5-cycloprop-oxypyridin-2-yl)-1,2,4-thiadiazol-5-ylamino)pyridin-3-yl)piperazin-1-yl)-3,3,3-trifluoro-propan-1-one]: 500 to 5000 nM; for `Cc1cccnc1Nc1nc(-c2ccc3c(n2)CN(CC2CC2)C3)ns1` [Compound 114, 3-(6-(cyclo-propylmethyl)-6,7-dihydro-5H-pyrrolo[3,4-b]pyridin-2-yl)-N-(3-methylpyridin-2-yl)-1,2,4-thiadiazol-5-amine]: 500 to 5000 nM.
The same measure for `CC(C)Oc1ccc(-c2nsc(Nc3ncccc3C(C)C)n2)nc1` [Compound 115, 3-(5-isopropoxy-pyridin-2-yl)-N-(3-isopropyl-pyridin-2-yl)-1,2,4-thiadiazol-5-amine]: less than 200 nM; for `CC(C)Oc1ccc(-c2nsc(Nc3ncccc3N3CCCC3)n2)nc1` [Compound 116, 3-(5-isopropoxy-pyridin-2-yl)-N-(3-(pyrrolidin-1-yl)pyridin-2-yl)-1,2,4-thiadiazol-5-amine]: less than 200 nM; for `CN(C)c1cccnc1Nc1nc(-c2ncccc2OC2CC2)ns1` [Compound 117, N2-(3-(3-cycloprop-oxypyridin-2-yl)-1,2,4-thiadiazol-5-yl)-N3,N3-dimethyl-pyridine-2,3-diamine]: 200 to 500 nM.
